Measured values from patent publication US7988972B2, “Immunoreactive peptides from Epstein-Barr virus” (Ortho-Clinical Diagnostics, Inc., priority 1993, dated 2011).

Legend:
[1] = system: EA reactive antibody (IgG) in infectious mononucleosis (IM) sera; assay: ELISA, EA peptides with EBV infectious mononucleosis sera; type: binding, human; conditions: EA positive EBV IM acute serum
Description: (§1) ELISA. The ELISA for measuring specific antibodies to p17, p50 or to the synthetic peptides was performed as previously described in detail (Luka et al., J. Immunol. Methods, 67:145-156, 1984). Aliquots of different antigen concentrations were diluted in 0.5M Na2CO3 buffer, pH 9.5, added to wells in polystyrene microtiter plates (Linbro) and the plates incubated overnight at 4° C. Following this incubation period, the plates were washed 5× with Tris-HCl, pH 7.4, containing 0.05% Tween 20, 50 mM NaCl and 100 mg per liter albumin (Sigma) and dried for 20 minutes at room temperature. The plates were screened with different anti-EA-R or EA-D antibody positive human sera and the monoclonal antibody to p17 or p50 to identify the optimal concentration of antigen to be used in the serological studies. Alkaline-phosphatase-labelled goat anti-human IgG (Sigma) or goat anti-mouse IgG (Sigma) was used as the indicator system.
(§2) For the testing of human sera for antibodies to native p17, p50 or to the synthetic peptides, sera were diluted 1:10 in ELISA buffer, added in 0.1 ml volumes to wells coated with optimal concentrations of antigen and the plates were incubated for 60 minutes at room temperature. After 4 washes with ELISA buffer, 100 μl of alkaline phosphatase-labelled goat anti-human IgG in ELISA buffer were added to each well and the plates were incubated at room temperature for 1 hour. Following four more washes in buffer, the enzyme reaction was performed by dissolving 1 mg per ml of Sigma alkaline phosphatase substrate in 1M diethanolamine buffer, pH 10.4, containing 1 mM MgCl2 and 0.1 mM ZnCl2, and 100 μl of the mixture was then added to each well. The reaction was allowed to proceed for 30 minutes at 37° C. and then the plates were screened directly with a microplate reader, TITERTEK MULTISKAN MC (Flow), at 420 nm. Readings above 0.1 which was 2× the background noted with antibody-negative sera were considered positive reactions.
When the entire 50.10 peptide was tested with 1M sera, 24/32 or 75% of the sera contained EA-D reactive antibody (IgG) (Table 4).
Serological reactivity of EA peptides p17.1 and p50.1 which contained additional amino acids on their amino and carboxy termini was tested on EBV IM acute sera which was EA positive. The ELISA results shown in Table 5 indicate that the additional amino acids improved reactivity for both EA peptides.
Immunofluorescence assays (IFA) were performed as described by Henle, et al. (Int. J. Cancer, 8:272-282, 1971). Western blot analysis was done by methods commonly used in the art (See for example, Coligan, et al., Current Protocols in Immunology, Wiley Interscience, 1991, Unit 12). Samples of EBV-infected cell lysates (P3HR-1) were tested with human whole antiserum from positive humans (Pearson, et al., Virology, 160:151-161, 1987). A comparison was made between EA serology by IFA, using the EA-D 50.1 peptide antisera, and ELISA serology using 50.1 peptide (see Example 2).

[2] = system: peripheral blood lymphocytes (PBL); assay: Proliferation assay of peripheral blood lymphocytes (3H-thymidine incorporation); type: cell-based, human; conditions: for proliferation response: PBL from 3 anti-VCA-positive anti-EA-antibody-negative individuals; for 3H-thymidine Incorporation (cpm + S.D.) / S.I. (stimulation index): PBL from anti-VCA-positive, anti-EA-positive donor, 5 days
Description: Proliferation assays. T-cell proliferation assays using the native p17 or p50 polypeptide or the synthetic peptides were performed as previously described in detail (Pothen et al., Int. J. Cancer, 49:656-660, 1991). Briefly, peripheral blood lymphocytes (PBLO from sero-positive donors were isolated on FICOLL-HYPAQUE gradients, washed and resuspended in RPMI 1640 media containing 10% heat-inactivated human A^+ serum from a sero-negative donor. Cells (1×10^5 per 0.1 ml) were then added to each well in 96-well, round-bottomed tissue culture plates (Costar, Cambridge, Mass.). The different antigen preparations were added to triplicate wells in 0.1 ml volumes and the plates were incubated at 37° C. for 5 days. ^3H-thymidine (5 Ci per mM) was added at a concentration of 1 μCi per well over the last 4 hours of culture. The cells were then harvested with a multichannel sample harvester and ^3H-thymidine incorporation was determined using a Beckman Model LS 3801 liquid scintillation counter. Stimulation indices for the test antigens were calculated by dividing the average counts per minute (CPMO for the test antigens by the average CPM of the medium control wells.
PBL from asymptomatic EBV-infected individuals were tested for response to any of the three p17 synthetic peptides (Table 1) by a proliferation assay using lymphocytes previously shown to proliferate in the presence of native p17 (Pothen et al., Int. J. Cancer, 49:656-660, 1991). Different concentrations of the synthetic peptides were incubated with the PBL for 5 days and then proliferation was assayed by the incorporation of ^3H-thymidine. The native p17 purified from activated P3HR-1 cells gave a S.I. of 15.8 in this experiment. […] Neither of the other synthetic peptides induced a proliferation response at the concentrations tested.
PBL from 3 anti-VCA-positive anti-EA-antibody-negative individuals were also examined in the proliferation assay with the three synthetic peptides. Again, all 3 PBL preparations responded to the highest concentrations of p17.1 with S.I.'s ranging from 3.5-11. Two of the preparations (FIG. 2A,C) also proliferated in the presence of lower concentrations of antigen with S.I.'s of 3 and 5 respectively. […] These experiments established that T-lymphocytes from EBV-infected individuals, irrespective of the presence of antibody to EA, recognized a dominant epitope on p17.

[3] = system: anti-EA antibodies in human sera; assay: ELISA, serological reactivity of human sera with p17 synthetic peptides; type: binding; conditions: for share of anti-EA-positive sera that reacted: 87 anti-EA antibody-positive sera (titer>160), 2 μg peptide per well; for No. Positive/No. Tested / No. Positive/No. Tested (%): sera 1:10
Description: as §1, §2
Studies were designed to determine the serological reactivity with the p17 synthetic epitopes. For this purpose, 87 anti-EA antibody-positive sera (titer>160) were tested in the ELISA against optimal pre-determined concentrations (2 μg per well) of the p17 synthetic peptides. The sera were obtained from 28 patients with African Burkift's lymphoma (ABL) collected during the Ghanian Burkitt Tumor Project, and from 28 North American patients with intermediate large cell, or high grade non-Hodgkin's lymphoma (NANHL). The donors included both HIV-positive and HIV-negative individuals. In addition, sera from 31 North American nasopharyngeal carcinoma (NANPC) patients were examined in this study (Pearson, G. R., et al., Cancer, 51:260-268, 1983). To validate the EA specificity of the serological reactions, the results with these sera were compared with results with 23 VCA and EA antibody-negative sera and 30 VCA-antibody-positive, EA-antibody negative sera. In contrast to the T-cell proliferation results, all three synthetic peptides reacted with the EA antibody-positive sera to varying degrees with p17.1 again being the dominant epitope. Approximately 60% of the anti-EA-positive sera reacted with p17.1, 48% with p17.2 and 23% with p17.3.
Seventy-one percent of the sera from ABL patients and 93% of the sera from patients with NANHL reacted with p17.1 as opposed to 23% of the sera from North American patients with NPC.

[4] = serum donors: Burkitt's lymphoma (African), EA titers >160
[5] = serum donors: Lymphoma (total), EA titers >160
[6] = serum donors: Nasopharyngeal carcinoma (North American), EA titers >160
[7] = serum donors: Non-Hodgkin's lymphoma (North American), EA titers >160
[8] = serum donors: Normal (VCA + EA-)
[9] = serum donors: Normal (VCA − EA-)

| Sequence | ELISA result, peptides with and without extensions ([1]; sample no. 2241) | ELISA result, peptides with and without extensions ([1]; sample no. 12498) | ELISA result, peptides with and without extensions ([1]; sample no. 12836) | proliferation response [2] | 3H-thymidine Incorporation (cpm + S.D.) ([2]; 3.12 μg/ml) [cpm] | S.I. (stimulation index) ([2]; 3.12 μg/ml) | 3H-thymidine Incorporation (cpm + S.D.) ([2]; 12.5 μg/ml) [cpm] | S.I. (stimulation index) ([2]; 12.5 μg/ml) | 3H-thymidine Incorporation (cpm + S.D.) ([2]; 50 μg/ml) [cpm] | share of anti-EA-positive sera that reacted [3] [%] | No. Positive/No. Tested [3, 4] | No. Positive/No. Tested (%) [3, 4] [%] | No. Positive/No. Tested [3, 5] | No. Positive/No. Tested (%) [3, 5] [%] | No. Positive/No. Tested [3, 6] | No. Positive/No. Tested (%) [3, 6] [%] | No. Positive/No. Tested [3, 7] | No. Positive/No. Tested (%) [3, 7] [%] | No. Positive/No. Tested [3, 8] | No. Positive/No. Tested (%) [3, 8] [%] | further results |
| --- | --- | --- | --- | --- | --- | --- | --- | --- | --- | --- | --- | --- | --- | --- | --- | --- | --- | --- | --- | --- | --- |
| ARQKQKHPKKVKQAFNPLI [50.1e, extension of p50.10 by the addition of several amino and carboxy-terminal amino acids] | >2 | 0.946 | 1.718 |  |  |  |  |  |  |  |  |  |  |  |  |  |  |  |  |  |  |
| GMLEASEGLDGWIHQ [p17.2, synthetic peptide from 17 Kd early antigen (EA-R) region of EBV] |  |  |  | None of these PBL preparations proliferated | 157 ± 23 | 1.1 | 278 ± 58 | 1.9 | 277 ± 175 | 48 | 13/28 | 46 | 36/56 | 64 | 6/31 | 19 | 23/28 | 82 | 0/30 | 0 | No. Positive/No. Tested [3, 9]: 0/23 |
| HQQGGWSTLIEDNIP [p17.3, synthetic peptide from 17 Kd early antigen (EA-R) region of EBV] |  |  |  | None of these PBL preparations proliferated | 194 ± 65 | 1.3 | 132 ± 3 | 0 | 190 ± 47 | 23 | 9/28 | 32 | 16/56 | 29 | 4/31 | 13 | 7/28 | 25 | 0/30 | 0 | No. Positive/No. Tested [3, 9]: 0/23 |
| QNSETFTETWNRFITHTEHVD [17.1e, extension of p17.1 by the addition of several amino and carboxy-terminal amino acids] | 1.277 | 0.502 | 1.257 |  |  |  |  |  |  |  |  |  |  |  |  |  |  |  |  |  |  |
